According to US9085584B2, “Substituted pyrido[3,2-E][1,2,4]-triazolo[4,3-A]pyrazines for the treatment of central nervous system disorders” (Boehringer Ingelheim International GmbH, priority 2012, dated 2015):

assay: Metabolic stability in pooled liver microsomes; assay type: in vitro ADME, human; conditions: human liver microsomes, 1 μM test compound, 37° C.
Protocol: The metabolic stability of the compounds according to the invention has been investigated as follows:
The metabolic degradation of the test compound was assayed at 37° C. with pooled liver microsomes from various species. The final incubation volume of 100 μl per time point contains TRIS buffer pH 7.6 at room temperature (0.1 M), magnesium chloride (5 mM), microsomal protein (1 mg/mL for human and dog, 0.5 mg/mL for other species) and the test compound at a final concentration of 1 μM. Following a short preincubation period at 37° C., the reactions were initiated by addition of betanicotinamide adenine dinucleotide phosphate, reduced form (NADPH, 1 mM), and terminated by transferring an aliquot into solvent after different time points. […] The half-life was determined by the slope of the semi-logarithmic plot of the concentration-time profile.

Half-life - t½ [h]	Compound
2.17	Cc1ccc(OC2COCC2O)cc1-c1nnc2c(C)nc3ccc(C4CC4)nc3n12 (racemic) [Example 57]
2.17	Cc1nc2ccc(C3CC3)nc2n2c(-c3cc(OC4COCC4O)ccc3Cl)nnc12 (racemic) [Example 58a]
2.17	Cc1ccc(C2(O)CCOCC2O)cc1-c1nnc2c(C)nc3ccc(C4CC4)nc3n12 (racemic) [Example 104]
2.17	Cc1nc2cccnc2n2c(-c3cc(OC4COCC4O)ccc3Cl)nnc12 (single isomer, unassigned) [Example 55a]
1.03	Cc1nc2ccc(C3CC3)nc2n2c(-c3cc(OC4COCC4O)ccc3Cl)nnc12 (single isomer, unassigned) [Example 56b]
2.17	Cc1ccc(OC2COCC2O)cc1-c1nnc2c(C)nc3ccc(C4CC4)nc3n12 (single isomer, unassigned) [Example 57a]
2.17	Cc1nc2cccnc2n2c(-c3cc(OC4COCCC4O)ccc3Cl)nnc12 (single isomer, unassigned) [Example 58]
2.17	Cc1nc2ccc(C3CC3)nc2n2c(-c3cc(OC4COCC4O)ccc3Cl)nnc12 (single isomer, unassigned) [Example 58b]
2.17	Cc1nc2ccc(C3CC3)nc2n2c(-c3cc(OC4COCC4O)ccc3Cl)nnc12 (single isomer, unassigned) [Example 58c]
2.17	Cc1nc2cccnc2n2c(-c3cc(C4(O)CCOC4)ccc3Cl)nnc12 (single isomer, unassigned) [Example 99]
2.17	Cc1ccc(C2(O)CCOCC2O)cc1-c1nnc2c(C)nc3ccc(C4CC4)nc3n12 (single isomer, unassigned) [Example 104a]
2.17	Cc1nc2cccnc2n2c(-c3cc(O)ccc3Cl)nnc12 [Example 1]
2.17	Cc1nc2cccnc2n2c(-c3cc(OCCCO)ccc3Cl)nnc12 [Example 13]
2.17	Cc1nc2cccnc2n2c(-c3cc(OC[C@@H](C)O)ccc3Cl)nnc12 [Example 17]
2.17	Cc1nc2cccnc2n2c(-c3cc(OC[C@H](C)O)ccc3Cl)nnc12 [Example 18]
2.17	Cc1nc2cccnc2n2c(-c3cc(OC4CCOCC4)ccc3Cl)nnc12 [Example 20]
2.17	Cc1nc2cccnc2n2c(-c3cc(OC4CCC(F)(F)CC4)ccc3Cl)nnc12 [Example 21]
2.17	Cc1ccc2nc(C)c3nnc(-c4cc(OC5CCC(F)(F)CC5)ccc4Cl)n3c2n1 [Example 30]
2.17	Cc1ccc2nc(C)c3nnc(-c4cc(OC5CCOCC5)ccc4Cl)n3c2n1 [Example 32]
2.17	Cc1ccc2nc(C)c3nnc(-c4cc(OC[C@H](C)O)ccc4Cl)n3c2n1 [Example 34]
2.17	Cc1ccc2nc(C)c3nnc(-c4cc(OC[C@@H](C)O)ccc4Cl)n3c2n1 [Example 35]

Half-life - t½ [h]	Compound
2.17	Cc1ccc2nc(C)c3nnc(-c4cc(O[C@@H]5CCOC5)ccc4Cl)n3c2n1 [Example 42]
2.17	Cc1ccc2nc(C)c3nnc(-c4cc(O[C@H]5CCOC5)ccc4Cl)n3c2n1 [Example 43]
2.17	Cc1nc2cccnc2n2c(-c3cc(OCC(C)(C)O)ccc3Cl)nnc12 [Example 44]
2.17	Cc1nc2ccc(C3CC3)nc2n2c(-c3cc(OCC(C)(C)O)ccc3Cl)nnc12 [Example 45]
2.17	Cc1ccc2nc(C)c3nnc(-c4cc(OCC(C)(C)O)ccc4Cl)n3c2n1 [Example 46]
2.17	Cc1nc2ccc(C3CC3)nc2n2c(-c3cc(OCC(C)(C)O)ccc3F)nnc12 [Example 47]
2.17	Cc1ccc(OCC(C)(C)O)cc1-c1nnc2c(C)nc3ccc(C4CC4)nc3n12 [Example 48]
2.17	Cc1nc2cccnc2n2c(-c3cc(OCC4(O)CCC4)ccc3Cl)nnc12 [Example 49]
2.17	Cc1ccc(OCC2(O)CCC2)cc1-c1nnc2c(C)nc3cccnc3n12 [Example 50]
2.17	Cc1ccc(OCC(C)(C)O)cc1-c1nnc2c(C)nc3ccc(C(C)C)nc3n12 [Example 51]
2.17	Cc1nc2ccc(C(C)C)nc2n2c(-c3cc(OCC(C)(C)O)ccc3F)nnc12 [Example 52]
2.17	Cc1nc2cc(C(C)C)cnc2n2c(-c3cc(OCC(C)(C)O)ccc3Cl)nnc12 [Example 54]
0.817	Cc1ccc2nc(C)c3nnc(-c4cc(C(O)C(C)C)ccc4Cl)n3c2n1 (stereo not shown) [Example 59]
2.17	CCC(O)c1ccc(Cl)c(-c2nnc3c(C)nc4ccc(C)nc4n23)c1 (stereo not shown) [Example 62]
2.17	Cc1ccc2nc(C)c3nnc(-c4cc(C(C)O)ccc4Cl)n3c2n1 (stereo not shown) [Example 63]
2.17	Cc1nc2cccnc2n2c(-c3cc(CCC(C)(C)O)ccc3Cl)nnc12 [Example 64]
2.17	Cc1ccc(CCC(C)(C)O)cc1-c1nnc2c(C)nc3cccnc3n12 [Example 67]
2.17	Cc1nc2cccnc2n2c(-c3cc(C(C)(C)O)ccc3Cl)nnc12 [Example 70]
2.17	Cc1ccc2nc(C)c3nnc(-c4cc(C(C)(C)O)ccc4Cl)n3c2n1 [Example 71]
2.17	Cc1nc2ccc(C3(C)CC3)nc2n2c(-c3cc(C(C)(C)O)ccc3F)nnc12 [Example 72]
2.17	Cc1nc2ccc(C3CC3)nc2n2c(-c3cc(C(C)(C)O)ccc3F)nnc12 [Example 76]

same assay, conditions: human, pooled liver microsomes, pH 7.6, human liver microsomes, 1 μM test compound, 37° C.; read-out: Half-life - t½

half-life at 1 μM [h]	Compound
2	Cc1nc2ccc(C3CC3)nc2n2c(-c3cc(OC4COCC4O)ccc3Cl)nnc12 (racemic) [Example 56]
1.83	Cc1nc2ccc(C3CC3)nc2n2c(-c3cc(OC4COCC4O)ccc3Cl)nnc12 (single isomer, unassigned) [Example 56a]
1.55	Cc1ccc(OC2COCC2O)cc1-c1nnc2c(C)nc3ccc(C4CC4)nc3n12 (single isomer, unassigned) [Example 57b]
0.717	Cc1nc2ccc(C3CC3)nc2n2c(-c3cc(O)ccc3F)nnc12 [Example 5]
1.1	Cc1ccc(O)cc1-c1nnc2c(C)nc3ccc(C4CC4)nc3n12 [Example 6]
0.683	Cc1nc2ccc(C3CC3)nc2n2c(-c3cc(O)ccc3Cl)nnc12 [Example 9]
1.05	Cc1nc2ccc(C(F)(F)F)nc2n2c(-c3cc(O)ccc3Cl)nnc12 [Example 12]
0.6	Cc1nc2ccc(C3CC3)nc2n2c(-c3cc(OC4CCOCC4)ccc3Cl)nnc12 [Example 32a]
1.08	CCCC(O)c1ccc(Cl)c(-c2nnc3c(C)nc4ccc(C)nc4n23)c1 (stereo not shown) [Example 61]
0.95	Cc1nc2ccc(C3CC3)nc2n2c(-c3cc(CCC(C)(C)O)ccc3F)nnc12 [Example 66]
0.65	Cc1ccc(CCC(C)(C)O)cc1-c1nnc2c(C)nc3ccc(C4CC4)nc3n12 [Example 68]
0.883	Cc1nc2ccc(C3CC3)nc2n2c(-c3cc(CCC(C)(C)O)ccc3Cl)nnc12 [Example 69]
1.5	Cc1nc2ccc(C(C)C)nc2n2c(-c3cc(C(C)(C)O)ccc3Cl)nnc12 [Example 77]
